Columns and labels:
[1] = tested on: chinchilla rabbits with experimental myocardial infarction; experiment: Experimentally-induced myocardial infarction (coronary artery ligation); assay type: in vivo, rabbit; details: for NN of Animals With Necrosis: of 10 animals; for EKG Q: oral 100 mg/kg BW of each ingredient daily
Description: Histological, light microscopic methods of investigation have been employed to study the zone of necrosis, perinecrotic zone and myocardium regions spaced from the time of infarction by 7 and 14 days after the infarction event. Dynamic electrocardiographic observation over the animals was carried out during the first day and during the following 7 and 14 days. The study of the total cross-sectional patterns of a rabbit's heart has made it possible to precisely define these zones. The first Group of 10 animals was sham-operated without treatment (Group I, positive control-Intact, no MI). […] Group II animals were without treatment (negative control-MI Control).

mice = experiment: Short term (14 day) work capacity: swimming lengths within 30 minutes, hepatic glycogen; assay type: in vivo, mouse
Description: Seventy two animals (mice) were divided into 12 groups of 6 animals each; a control group (untreated) and 11 test groups that were intragastrically administered varying daily doses of inosine, potassium orotate or an inosine plus potassium orotate combination (the “combination”) for 14 days. […] The swimming exercise consisted of forcing the animals to perform repetitive swimming in a three meter long channel until exhaustion. The level of exhaustion was determined by a count of the number of swimming lengths which each animal did within 30 minutes. A lower number of swimming lengths indicated a greater level of exhaustion, whereas a higher number of lengths indicated a greater work capacity.

white rats = experiment: Long-term (6 months) work capacity in trained and non-trained rats; details: for Glycogen in m. quadriceps, After work / Glycogen in m. quadriceps, In rest: end of experiments; for Swimming time After 6 mo.: INO 25 mg/kg, PO 50 mg/kg
Description: Seventy two white rats were randomly placed in 6 groups (12 animals each), to test the effectiveness of training and to determine morphological and physiological alterations in the rats. In Group I, control rats were nontrained and not administered either of inosine or the combination of inosine and orotate; Group II comprised non-trained rats to which were administered inosine (25 mg/kg/body weight; Group III comprised non-trained rats to which were administered the combination of inosine plus potassium orotate (25 mg/kg/body weight of inosine and 50 mg/kg/body weight potassium orotate); Group IV comprised trained rats that were not administered either of inosine or the combination of inosine and orotate; Group V comprised trained rats to which was administered inosine alone (25 mg/kg/body weight), and Group VI comprised trained rats to which was administered the combination of inosine plus potassium orotate (25 mg/kg/body weight of inosine and 50 mg/kg/body weight potassium orotate).
Training of rats consisted of their forced swimming in a water bath (28-30° C.) with a weight fixed on their backs (7.5% of the rat body weight). During the first two weeks the animals swam daily for 5-10 minutes, after which we determined the individual maximum time of swimming to exhaustion (i.e. maximum work capacity) for each animal and then calculated the mean maximum time for each group. After 2 weeks these initial maximum work capacity values were used for planning and performing additional swimming training.
The functional condition of the rats at rest was estimated from their work capacity (maximum swimming time), body weight increase, EKG tests, oxygen consumption and sodium and potassium levels in the myocardium in a relatively quiet state. The morphological state of the heart and other viscera were rated from their absolute and relative weights, and also from histological and histochemical examinations of the myocardium. Also determined were the amounts of glycogen in the m. quadriceps (quadriceps group of muscles) of the hip, the myocardium and the liver. All the quantitative results obtained were processed with conventional statistical procedures.

SMILES: OC[C@H]1O[C@@H](n2cnc3c(O)ncnc32)[C@H](O)[C@@H]1O [inosine]
- Thickness of Left Ventricular Wall ([1]; Day 7): 5.2 ± 0.72 mm
- EKG R ([1]; Day 7, 100 mg/kg BW each): 4.1 ± 0.30 mm
- NN of Animals With Necrosis ([1]; Day 7, MI control 10): 5
- EKG Q ([1]; Day 7): 1.1 ± 0.03 mm
- EKG QRS ([1]; Day 14): 0.068 ± 0.003 s
- EKG R ([1]; Day 14): 4.3 ± 0.28 mm
- Thickness of Left Ventricular Wall ([1]; Day 14): 5.6 ± 0.21 mm
- NN of Animals With Necrosis ([1]; Day 14, MI control 3): 0
- EKG Q ([1]; Day 14): 0.8 ± 0.02 mm
- reduction in necroses ([1]; administered individually, 100 mg/kg): 50%
- hemorrhages or infiltration in the infarction zone ([1]; by the fourteenth day): virtually had no hemorrhages or infiltration in the infarction zone
- restoration of EKG readings ([1]; by the seventh experimental day): nearly a complete restoration of the voltage of EKG waves and of the systolic index
- Swimming lengths (mice; 12.5 mg/kg BW daily for 14 days intragastrically, within 30 minutes, control 24.9): 33.9
- increase in number of swimming lengths (mice; 12.5 mg/kg/body weight daily, 14 days): 35.4%
- Swimming lengths (mice; 25 mg/kg BW, 14 days): 46.4
- increase in number of swimming lengths (mice; 25 mg/kg/body weight daily, 14 days): 85.6%
- Swimming lengths (mice; 50 mg/kg BW, 14 days): 39.6
- increase in number of swimming lengths (mice; 50 mg/kg/body weight daily, 14 days): 58.5%
- Swimming lengths (mice; 100 mg/kg BW, 14 days): 31.1
- increase in number of swimming lengths (mice; 100 mg/kg/body weight daily, 14 days): 24.3%
- mean decrease of hepatic glycogen stores during the swimming exercise (mice; controls 67.5% from baseline): 24.5%
- increased hepatic glycogen content (mice; inosine 25 mg/kg, potassium orotate 50 mg/kg, or combination): 21%
- animal body weights (white rats; after 6 months): did not materially alter animal body weights
- HEART RATE (white rats; after 6 months training): 300 ± 5.2 beats per minute
- PQ (white rats; after 6 months training): 0.047 ± 0.03
- QRS (white rats; after 6 months training): 0.031 ± 0.004
- QT (white rats; after 6 months training): 0.076 ± 0.001
- Systolic Index (white rats; after 6 months training): 38 ± 6.3
- ΣR (white rats; after 6 months training): 17 ± 0.5 mm
- toxic effects on the functional state of the animals, morphology of the myocardium (white rats; rat, in vivo): did not manifest any toxic effects
- Heart weight after 6 mo. (white rats; trained rats): 359 ± 3.9 mg/100gk BW
- ORGAN WEIGHT Heart (white rats; trained rats): 359.3 ± 4.5 mg PER 100 GRAMs Body Weight
- P/S In all rats group (white rats; trained rats): 1.34 ± 0.12
- P/S In quiet state (white rats; trained rats): 1.16 ± 0.08
- P/S In rat sacrificed after intense physical exercise (white rats; trained rats): 1.55 ± 0.04
- Potassium (myocardium) (white rats; trained rats): 0408 ± 0.015 mcq/gram dry tissue
- Sodium (myocardium) (white rats; trained rats): 0.304 ± 0.018 mcq/gram dry tissue
- Swimming time Before (white rats; trained rats): 65 ± 6.6 min
- Glycogen in m. quadriceps, After work (white rats; trained rats): 558 ± 13.4
- Glycogen in m. quadriceps, In rest (white rats; trained rats): 889 ± 26.0
- Swimming time After 6 mo. (white rats; trained rats, trained control 142 ± 2.4): 180 ± 3.4 min
- Heart weight after 6 mo. (white rats; untrained rats): 302 ± 91 mg/100gk BW
- ORGAN WEIGHT Heart (white rats; untrained rats): 309.4 ± 9.7 mg PER 100 GRAMs Body Weight
- Oxygen consumption End of experiment (white rats; untrained rats): 26.0 ± 0.82 ml/min/kg BW
- P/S In all rats group (white rats; untrained rats): 1.85 ± 0.05
- P/S In quiet state (white rats; untrained rats): 2.01 ± 0.3
- P/S In rat sacrificed after intense physical exercise (white rats; untrained rats): 1.67 ± 0.09
- Potassium (myocardium) (white rats; untrained rats): 0481 ± 0.03 mcq/gram dry tissue
- Sodium (myocardium) (white rats; untrained rats): 0.261 ± 0.018 mcq/gram dry tissue
- Swimming time Before (white rats; untrained rats): 65 ± 5.0 min
- Glycogen in m. quadriceps, After work (white rats; untrained rats): 450 ± 28.3
- Glycogen in m. quadriceps, In rest (white rats; untrained rats): 829 ± 42.0
- Swimming time After 6 mo. (white rats; untrained rats): 70 ± 4.0 min
- HEART RATE (white rats; untrained, after 6 months): 452 ± 8.6 beats per minute
- PQ (white rats; untrained, after 6 months): 0.054 ± 0.003
- QRS (white rats; untrained, after 6 months): 0.026 ± 0.003
- QT (white rats; untrained, after 6 months): 0.06 ± 0.001
- Systolic Index (white rats; untrained, after 6 months): 42.5 ± 9.7
- ΣR (white rats; untrained, after 6 months): 14 ± 0.7 mm

From US20100190737A1, “COMPOSITIONS COMPRISING INOSINE AND OROTIC ACID AND METHODS OF USE THEREOF FOR THE TREATMENT OF CERTAIN HEART CONDITIONS AND ENHANCEMENT OF WORK CAPACITY” (NUTRITIONAL RESEARCH GROUP LLC, priority 2009, published 2010)
